Experimental data taken from patent publication US12723063B2, “GIPR-agonist compounds” (Eli Lilly and Company, priority 2019, dated 2026).
*1 amine or outer side, *2 acyl side, *3 side chain or, on linkers, in order; H or OH if unused. Where a SMILES comes first, the peptide text is derived from it. Side-chain parts run from the residue outwards. [ ]: non-standard residue; d: D form. The star is where a group is joined. C20 diacid = O=C(O)CCCCCCCCCCCCCCCCCCC(=O)*; C18 diacid = O=C(O)CCCCCCCCCCCCCCCCC(=O)*; αMePhe(2-F) = C[C@](N)(Cc1ccccc1F)C(=O)O; γGlu = O=C(O)[C@H](CCC(=O)[*:2])N[*:1]; 4Pal = N[C@@H](Cc1ccncc1)C(=O)O; αMeL = CC(C)C[C@](C)(N)C(=O)O; Iva = CC[C@](C)(N)C(=O)O; Orn = NCCC[C@H](N)C(=O)O; AEEA = NCCOCCOCC(=O)O; Aib = CC(C)(N)C(=O)O

Columns and labels:
[1] = target: T1, human GIPR (Homo sapiens, UniProt P48546); assay: [125I]-GIP binding, SPA with WGA beads, 0.1% bacitracin; settings: geometric mean, read-out: hGIPR Ki
T1 construct: expressed in transfected cells; crude membranes
T1 sequence (P48546 22-466): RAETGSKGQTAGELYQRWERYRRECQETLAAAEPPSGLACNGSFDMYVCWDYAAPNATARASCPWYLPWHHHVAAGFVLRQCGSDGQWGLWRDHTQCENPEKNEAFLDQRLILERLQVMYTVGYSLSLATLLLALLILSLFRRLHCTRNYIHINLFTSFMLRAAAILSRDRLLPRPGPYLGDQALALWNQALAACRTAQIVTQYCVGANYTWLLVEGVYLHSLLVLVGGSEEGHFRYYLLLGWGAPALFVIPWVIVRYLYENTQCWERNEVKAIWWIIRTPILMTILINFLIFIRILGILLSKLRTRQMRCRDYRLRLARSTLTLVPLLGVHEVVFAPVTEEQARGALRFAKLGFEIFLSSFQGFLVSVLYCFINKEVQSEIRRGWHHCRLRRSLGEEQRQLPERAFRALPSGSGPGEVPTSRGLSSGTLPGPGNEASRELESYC
Outline: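 Ki values are geometric means (SEM, n independent days), derived from four-parameter nonlinear regression of IC50. Membranes came from hGIPR-expressing CHO cells.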

[2] = target: T2, human GLP-1R (Homo sapiens, UniProt P43220); assay: [125I]-GLP-1 binding, SPA with WGA beads, 0.1% bacitracin; settings: geometric mean, read-out: hGLP1R Ki
T2 construct: expressed in transfected cells; crude membranes
Outline: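 Binding buffer was 25 mM HEPES pH 7.4 with 2.5 mM CaCl2, 1 mM MgCl2, 0.1% (w/v) bacitracin, 0.003% Tween-20 and EDTA-free protease inhibitors. Four-parameter regression gave IC50, converted to Ki (geometric mean, SEM, n independent days).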

[3] = target: T3, human GcgR (Homo sapiens, UniProt P47871); assay: [125I]-Glucagon binding, SPA with WGA beads, 0.1% bacitracin; settings: geometric mean, read-out: hGcgR Ki
T3 construct: expressed in transfected cells; crude membranes
Outline: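 SPA competition binding with WGA beads on crude membranes from HEK293 cells stably expressing hGcgR. Buffer: 25 mM HEPES pH 7.4, 2.5 mM CaCl2, 1 mM MgCl2, 0.1% bacitracin, 0.003% Tween-20; 10-point 3-fold dilutions, NSB with 1 μM Gcg.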

T2 sequence (P43220 24-463): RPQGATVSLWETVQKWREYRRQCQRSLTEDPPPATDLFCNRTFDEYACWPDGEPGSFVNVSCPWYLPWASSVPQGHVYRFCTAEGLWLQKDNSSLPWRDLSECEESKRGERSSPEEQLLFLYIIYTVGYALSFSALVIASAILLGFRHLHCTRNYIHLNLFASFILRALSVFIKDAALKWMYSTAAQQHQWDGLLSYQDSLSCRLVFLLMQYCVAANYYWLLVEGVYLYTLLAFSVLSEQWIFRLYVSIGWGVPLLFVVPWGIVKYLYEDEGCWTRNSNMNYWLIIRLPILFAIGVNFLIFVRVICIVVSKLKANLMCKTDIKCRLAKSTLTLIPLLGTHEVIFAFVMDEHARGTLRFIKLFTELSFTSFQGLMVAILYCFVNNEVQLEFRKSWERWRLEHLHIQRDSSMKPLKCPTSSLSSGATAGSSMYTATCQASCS
T3 sequence (P47871 26-477): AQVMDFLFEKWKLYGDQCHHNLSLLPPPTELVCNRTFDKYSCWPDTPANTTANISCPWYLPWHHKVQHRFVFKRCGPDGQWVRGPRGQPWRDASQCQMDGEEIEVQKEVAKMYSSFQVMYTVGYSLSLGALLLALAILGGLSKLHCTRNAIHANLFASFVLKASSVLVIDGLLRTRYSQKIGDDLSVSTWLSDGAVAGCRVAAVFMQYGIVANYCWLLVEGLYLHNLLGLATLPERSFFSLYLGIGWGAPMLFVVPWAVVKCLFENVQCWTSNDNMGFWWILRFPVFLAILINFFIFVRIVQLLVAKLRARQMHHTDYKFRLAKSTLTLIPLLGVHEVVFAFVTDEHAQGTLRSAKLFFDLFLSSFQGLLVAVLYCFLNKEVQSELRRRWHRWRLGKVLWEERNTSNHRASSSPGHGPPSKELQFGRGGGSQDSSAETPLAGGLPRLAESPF

SMILES | Ki [1] [nM] | Ki [2] [nM] | Ki [3] [nM]
CC[C@H](C)[C@H](NC(=O)[C@H](CCCN)NC(=O)[C@H](CC(=O)O)NC(=O)[C@H](CC(C)C)NC(=O)[C@](C)(CC(C)C)NC(=O)[C@@H](NC(=O)[C@H](CO)NC(=O)[C@H](Cc1ccc(O)cc1)NC(=O)[C@H](CC(=O)O)NC(=O)[C@H](CO)NC(=O)[C@@H](NC(=O)[C@H](Cc1ccccc1)NC(=O)[C@@H](NC(=O)CNC(=O)[C@H](CCC(=O)O)NC(=O)C(C)(C)NC(=O)[C@@H](N)Cc1ccc(O)cc1)[C@@H](C)O)[C@@H](C)CC)[C@@H](C)CC)C(=O)N[C@@H](Cc1c[nH]cn1)C(=O)N[C@@H](CCC(N)=O)C(=O)NC(C)(C)C(=O)N[C@@H](CC(=O)O)C(=O)N[C@@H](Cc1ccccc1)C(=O)N[C@H](C(=O)N[C@@H](CCC(=O)O)C(=O)N[C@@H](Cc1ccc(O)cc1)C(=O)N[C@@H](CCCCNC(=O)COCCOCCNC(=O)COCCOCCNC(=O)CC[C@H](NC(=O)CCCCCCCCCCCCCCCCC(=O)O)C(=O)O)C(=O)N[C@@H](CC(C)C)C(=O)N[C@@H](CCC(=O)O)C(=O)NCC(=O)NCC(=O)N1CCC[C@H]1C(=O)N[C@@H](CO)C(=O)N[C@@H](CO)C(=O)NCC(=O)N[C@@H](C)C(=O)N1CCC[C@H]1C(=O)N1CCC[C@H]1C(=O)N1CCC[C@H]1C(=O)N[C@@H](CO)C(N)=O)C(C)C [Example 103] (H-Y[Aib]EGTFISDYSI[αMeL]LD[Orn]IHQ[Aib]DFVEYK([AEEA-AEEA-γGlu-C18 diacid])LEGGPSSGAPPPS-NH2) | 0.0405 | > 913 | > 960
CC[C@H](C)[C@H](NC(=O)[C@H](CO)NC(=O)[C@H](Cc1ccc(O)cc1)NC(=O)[C@H](CC(=O)O)NC(=O)[C@H](CO)NC(=O)[C@@H](NC(=O)[C@](C)(Cc1ccccc1F)NC(=O)[C@@H](NC(=O)CNC(=O)[C@H](CCC(=O)O)NC(=O)C(C)(C)NC(=O)[C@@H](N)Cc1ccc(O)cc1)[C@@H](C)O)[C@@H](C)CC)C(=O)N[C@@H](C)C(=O)N[C@@H](CC(C)C)C(=O)N[C@@H](CC(=O)O)C(=O)N[C@@H](CCCCN)C(=O)N[C@H](C(=O)N[C@@H](Cc1c[nH]cn1)C(=O)N[C@@H](CCC(N)=O)C(=O)NC(C)(C)C(=O)N[C@@H](CCC(=O)O)C(=O)N[C@@H](Cc1ccccc1)C(=O)N[C@H](C(=O)N[C@@H](CC(N)=O)C(=O)N[C@@H](Cc1ccc(O)cc1)C(=O)N[C@@H](CCCCNC(=O)COCCOCCNC(=O)COCCOCCNC(=O)CC[C@H](NC(=O)CCCCCCCCCCCCCCCCCCC(=O)O)C(=O)O)C(=O)N[C@@H](CC(C)C)C(=O)N[C@@H](CCC(=O)O)C(=O)NCC(=O)NCC(=O)N1CCC[C@H]1C(=O)N[C@@H](CO)C(=O)N[C@@H](CO)C(=O)NCC(=O)N[C@@H](C)C(=O)N1CCC[C@H]1C(=O)N1CCC[C@H]1C(=O)N1CCC[C@H]1C(=O)N[C@@H](CO)C(N)=O)C(C)C)[C@@H](C)CC [Example 95] (H-Y[Aib]EGT[αMePhe(2-F)]ISDYSIALDKIHQ[Aib]EFVNYK([AEEA-AEEA-γGlu-C20 diacid])LEGGPSSGAPPPS-NH2) | 0.0255 | 832 | 85
CC[C@H](C)[C@H](NC(=O)[C@H](CO)NC(=O)[C@H](Cc1ccc(O)cc1)NC(=O)[C@H](CC(=O)O)NC(=O)[C@H](CO)NC(=O)[C@@H](NC(=O)[C@](C)(CC)NC(=O)[C@@H](NC(=O)CNC(=O)[C@H](CCC(=O)O)NC(=O)C(C)(C)NC(=O)[C@@H](N)Cc1ccc(O)cc1)[C@@H](C)O)[C@@H](C)CC)C(=O)N[C@@](C)(CC(C)C)C(=O)N[C@@H](CC(C)C)C(=O)N[C@@H](CC(=O)O)C(=O)N[C@@H](CCCCN)C(=O)N[C@@H](CCCCNC(=O)COCCOCCNC(=O)COCCOCCNC(=O)CC[C@H](NC(=O)CCCCCCCCCCCCCCCCCCC(=O)O)C(=O)O)C(=O)N[C@@H](Cc1c[nH]cn1)C(=O)N[C@@H](CCC(N)=O)C(=O)NC(C)(C)C(=O)N[C@@H](CC(=O)O)C(=O)N[C@@H](Cc1ccccc1)C(=O)N[C@H](C(=O)N[C@@H](CCC(=O)O)C(=O)N[C@@H](Cc1ccncc1)C(=O)N[C@@H](CC(C)C)C(=O)N[C@@H](CC(C)C)C(=O)N[C@@H](CCC(=O)O)C(=O)N[C@H](C(=O)NCC(=O)N1CCC[C@H]1C(=O)N[C@@H](CO)C(=O)N[C@@H](CO)C(=O)NCC(=O)N[C@@H](C)C(=O)N1CCC[C@H]1C(=O)N1CCC[C@H]1C(=O)N1CCC[C@H]1C(=O)N[C@@H](CO)C(N)=O)[C@@H](C)O)C(C)C [Example 75] (H-Y[Aib]EGT[Iva]ISDYSI[αMeL]LDKK([AEEA-AEEA-γGlu-C20 diacid])HQ[Aib]DFVE[4Pal]LLETGPSSGAPPPS-NH2) | 0.0626 | > 902 | > 958
CC[C@H](C)[C@H](NC(=O)[C@H](CO)NC(=O)[C@H](Cc1ccc(O)cc1)NC(=O)[C@H](CC(=O)O)NC(=O)[C@H](CO)NC(=O)[C@@H](NC(=O)[C@H](Cc1ccccc1)NC(=O)[C@@H](NC(=O)CNC(=O)[C@H](CCC(=O)O)NC(=O)[C@@H](C)NC(=O)[C@@H](N)Cc1ccc(O)cc1)[C@@H](C)O)[C@@H](C)CC)C(=O)N[C@@H](CC(C)C)C(=O)N[C@@H](CC(C)C)C(=O)N[C@@H](CC(=O)O)C(=O)N[C@@H](CCCCN)C(=O)N[C@@H](CCCCNC(=O)COCCOCCNC(=O)COCCOCCNC(=O)CC[C@H](NC(=O)CCCCCCCCCCCCCCCCC(=O)O)C(=O)O)C(=O)N[C@@H](C)C(=O)N[C@@H](CCC(N)=O)C(=O)NC(C)(C)C(=O)N[C@@H](CC(=O)O)C(=O)N[C@@H](Cc1ccccc1)C(=O)N[C@H](C(=O)N[C@@H](CC(N)=O)C(=O)N[C@@H](Cc1c[nH]c2ccccc12)C(=O)N[C@@H](CC(C)C)C(=O)N[C@@H](CC(C)C)C(=O)N[C@@H](CCC(=O)O)C(=O)N[C@@H](CCC(N)=O)C(=O)NCC(=O)N1CCC[C@H]1C(=O)N[C@@H](CO)C(=O)N[C@@H](CO)C(=O)NCC(=O)N[C@@H](C)C(=O)N1CCC[C@H]1C(=O)N1CCC[C@H]1C(=O)N1CCC[C@H]1C(=O)N[C@@H](CO)C(N)=O)C(C)C [Example 17] (H-Y[dA]EGTFISDYSILLDKK([AEEA-AEEA-γGlu-C18 diacid])AQ[Aib]DFVNWLLEQGPSSGAPPPS-NH2) | 0.0571 | 106 | 274
CC[C@H](C)[C@H](NC(=O)[C@H](CO)NC(=O)[C@H](Cc1ccc(O)cc1)NC(=O)[C@H](CC(=O)O)NC(=O)[C@H](CO)NC(=O)[C@@H](NC(=O)[C@](C)(Cc1ccccc1F)NC(=O)[C@@H](NC(=O)CNC(=O)[C@H](CCC(=O)O)NC(=O)C(C)(C)NC(=O)[C@@H](N)Cc1ccc(O)cc1)[C@@H](C)O)[C@@H](C)CC)C(=O)N[C@@H](C)C(=O)N[C@@H](CC(C)C)C(=O)N[C@@H](CC(=O)O)C(=O)N[C@@H](CCCCN)C(=O)N[C@H](C(=O)N[C@@H](Cc1c[nH]cn1)C(=O)N[C@@H](CCC(N)=O)C(=O)NC(C)(C)C(=O)N[C@@H](CC(=O)O)C(=O)N[C@@H](Cc1ccccc1)C(=O)N[C@H](C(=O)N[C@@H](CCC(=O)O)C(=O)N[C@@H](Cc1ccncc1)C(=O)N[C@@H](CCCCNC(=O)COCCOCCNC(=O)COCCOCCNC(=O)CC[C@H](NC(=O)CCCCCCCCCCCCCCCCCCC(=O)O)C(=O)O)C(=O)N[C@@H](CC(C)C)C(=O)N[C@@H](CCC(=O)O)C(=O)N[C@@H](CCC(N)=O)C(=O)NCC(=O)N1CCC[C@H]1C(=O)N[C@@H](CO)C(=O)N[C@@H](CO)C(=O)NCC(=O)N[C@@H](C)C(=O)N1CCC[C@H]1C(=O)N1CCC[C@H]1C(=O)N1CCC[C@H]1C(=O)N[C@@H](CO)C(N)=O)C(C)C)[C@@H](C)CC [Example 114] (H-Y[Aib]EGT[αMePhe(2-F)]ISDYSIALDKIHQ[Aib]DFVE[4Pal]K([AEEA-AEEA-γGlu-C20 diacid])LEQGPSSGAPPPS-NH2) | 0.121 | > 921 | > 971
CC[C@H](C)[C@H](NC(=O)[C@H](Cc1ccccc1)NC(=O)[C@@H](NC(=O)CNC(=O)[C@H](CCC(=O)O)NC(=O)C(C)(C)NC(=O)[C@@H](N)Cc1ccc(O)cc1)[C@@H](C)O)C(=O)N[C@@H](CO)C(=O)N[C@@H](CC(=O)O)C(=O)N[C@@H](Cc1ccc(O)cc1)C(=O)N[C@@H](CO)C(=O)N[C@H](C(=O)N[C@@](C)(CC(C)C)C(=O)N[C@@H](CC(C)C)C(=O)N[C@@H](CC(=O)O)C(=O)N[C@@H](CCCN)C(=O)N[C@@H](CCCCNC(=O)COCCOCCNC(=O)COCCOCCNC(=O)CC[C@H](NC(=O)CCCCCCCCCCCCCCCCCCC(=O)O)C(=O)O)C(=O)N[C@@H](Cc1c[nH]cn1)C(=O)N[C@@H](CCC(N)=O)C(=O)NC(C)(C)C(=O)N[C@@H](CC(=O)O)C(=O)N[C@@H](Cc1ccccc1)C(=O)N[C@H](C(=O)N[C@@H](CCC(=O)O)C(=O)N[C@@H](Cc1ccncc1)C(=O)N[C@@H](CC(C)C)C(=O)N[C@@H](CC(C)C)C(=O)N[C@@H](CCC(=O)O)C(=O)N[C@@H](CCC(N)=O)C(=O)NCC(=O)N1CCC[C@H]1C(=O)N[C@@H](CO)C(=O)N[C@@H](CO)C(=O)NCC(=O)N[C@@H](C)C(=O)N1CCC[C@H]1C(=O)N1CCC[C@H]1C(=O)N1CCC[C@H]1C(=O)N[C@@H](CO)C(N)=O)C(C)C)[C@@H](C)CC [Example 81] (H-Y[Aib]EGTFISDYSI[αMeL]LD[Orn]K([AEEA-AEEA-γGlu-C20 diacid])HQ[Aib]DFVE[4Pal]LLEQGPSSGAPPPS-NH2) | 0.0374 | 714 | 699
